Results from JPH0770139A, “2−(モノ又はジ置換−6，7−ジヒドロ−5H−ピラゾロ[1，2−a]ピラゾリウム−6−イル)チオ−カルバペネム誘導体” (Lederle Japan Ltd, priority 1993, dated 1994).

Test system: male CrjCD(SD) mice [CrjCD(SD)系雄性マウス]
Experiment: Toxicity test (subcutaneous administration to mice, 1 week observation)
Format: in vivo, mouse
Conditions: 500mg/kg, 10 male CrjCD(SD) mice, body weight 20-23 g, observation for 1 week

Row | Structure (SMILES) | survival without abnormality
1 | Cc1cc(C)[n+]2n1CC(SC1=C(C(=O)[O-])N3C(=O)[C@H]([C@@H](C)O)[C@H]3[C@H]1C)C2 (stereo partly drawn) [化合物(26), (1R,5S,6S)−2−[(6,7−ジヒドロ−1,3−ジメチル−5H−ピラゾロ[1,2−a]ピラゾリウム−6−イル)チオ]−6−[(R)−1−ヒドロキシエチル]−1−メチル−カルバペン−2−エム−3−カルボキシレート] | すべて異常なく生存した
2 | C[C@@H](O)[C@H]1C(=O)N2C(C(=O)[O-])=C(SC3Cn4cc(C(=O)N(C)C)c[n+]4C3)[C@H](C)[C@H]12 (stereo partly drawn) [化合物(28), (1R,5S,6S)−2−{[6,7−ジヒドロ−2−(N,N−ジメチルカルバモイル)−5H−ピラゾロ[1.2−a]ピラゾリウム−6−イル]チオ}−6−[(R)−ヒドロキシエチル]−1−メチルカルバペン−2−エム−3−カルボキシレート] | すべて異常なく生存した
3 | C[C@@H](O)[C@H]1C(=O)N2C(C(=O)[O-])=C(SC3Cn4cc(F)c[n+]4C3)[C@H](C)[C@H]12 (stereo partly drawn) [化合物(30), (1R,5S,6S)−2−[(6,7−ジヒドロ−2−フルオロ−5H−ピラゾロ[1.2−a]ピラゾリウム−6−イル)チオ]−6−[(R)−1−ヒドロキシエチル]−1−メチルカルバペン−2−エム−3−カルボキシレート] | すべて異常なく生存した
